Like-named read-outs stand apart in the source and are kept apart here.
Target: T1, Human factor D (Homo sapiens, UniProt P00746)
T1 construct: purified from human serum; purchased Complement Technology, Inc; host or cells: human serum
Experiment: Human Factor D Assay (Factor D inhibition assay)
Assay type: biochemical
Procedure: Routine changes in starting materials and reaction conditions, readily apparent to those of skill in the art, were used to make the particular compounds disclosed in Table 2.
Human factor D (purified from human serum, Complement Technology, Inc.) at 80 nM final concentration is incubated with test compound at various concentrations for 5 minutes at room temperature in 50 mM Tris, 1M NaCl, pH 7.5. A synthetic substrate Z-L-Lys-SBzl and DTNB (Ellman's reagent) are added to final concentrations of 100 µM each. The increase in color is recorded at OD405 nm in a microplate in kinetic mode over 30 minutes with 30 second time points in a […]. IC50 values are calculated by non-linear regression from the percentage of inhibition of complement factor D activity as a function of test compound concentration.

[1] = Factor D 80 nM, substrate Z-L-Lys-SBzl, DTNB, pH 7.5, read-out: IC50

T1 sequence (P00746 26-253): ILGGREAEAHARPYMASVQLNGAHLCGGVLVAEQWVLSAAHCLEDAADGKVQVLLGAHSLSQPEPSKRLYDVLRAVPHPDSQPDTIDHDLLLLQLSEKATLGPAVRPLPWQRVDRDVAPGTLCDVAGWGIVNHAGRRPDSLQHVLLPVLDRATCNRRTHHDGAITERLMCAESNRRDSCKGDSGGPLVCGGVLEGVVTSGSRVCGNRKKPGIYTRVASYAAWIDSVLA

IC50 [1]	Compound	other results
< 1000 nM	CC(=O)c1nn(CC(=O)N2C[C@H](F)C[C@H]2C(=O)Nc2cccc(SC(F)(F)F)c2)c2cnccc12 [Compound 53, (2S,4R)-1-(2-(3-acetyl-1H-pyrazolo[3,4-c]pyridin-1-yl)acetyl)-4-fluoro-N-(3-((trifluoro-methyl)thio)phenyl)pyrrolidine-2-carboxamide]	
> 10000 nM	O=C(NCc1cccc(Cl)c1F)[C@@H]1C[C@@H](F)CN1C(=O)Cn1nc(P(=O)(O)O)c2ccncc21 [Compound 65]	
	CCOP(=O)(OCC)c1ccc2c(C(C)=O)cn(CC(=O)N3[C@@H]4CCC[C@@H]4C[C@H]3C(=O)NCc3cccc(Cl)c3F)c2c1 [Compound 76, diethyl 1-(2-((2S,3aR,6aR)-2-((3-chloro-2-fluorobenzyl)carbamoyl)-hexahydrocyclopenta[b]pyrrol-1(2H)-yl)-2-oxoethyl)-3-acetyl-1H-indol-6-ylphosphonate]	IC50 (read-out: IC50): < 1000 nM
1000 to 10000 nM	C=CC1C[C@]1(NC(=O)[C@@H]1C[C@@H](F)CN1C(=O)Cn1cc(C(C)=O)c2ccc(O)cc21)C(=O)NS(=O)(=O)C1CC1 (stereo partly drawn) [Compound 88, (2S,4R)-1-(2-(3-acetyl-6-hydroxy-1H-indol-1-yl)acetyl)-N-((1R)-1-(cyclopropylsulfonylcarbamoyl)-2-vinylcyclopropyl)-4-fluoropyrrolidine-2-carboxamide]	
< 1000 nM	CC(=O)c1cn(CC(=O)N2CCOC[C@H]2C(=O)NCc2cccc(Cl)c2F)c2cc(C(=O)O)ccc12 [Compound 159, (S)-1-(2-(3-((3-chloro-2-fluorobenzyl)carbamoyl)morpholino)-2-oxoethyl)-3-acetyl-1H-indole-6-carboxylic acid]	
	NC(=O)c1nn(CC(=O)N2C[C@H](F)C[C@H]2C(=O)Nc2cccc(-c3ccccc3Cl)c2F)c2cc(C(=O)NS(=O)(=O)C3CC3)ccc12 [Compound 212]	IC50 (pH 7.5, read-out: IC50): < 1000 nM
	CC(=O)c1cn(CC(=O)N2C[C@H](F)C[C@H]2C(=O)Nc2cccc(Oc3ccccc3)c2)c2cc(OCP(=O)(O)O)ccc12 [Compound 232, (((3-acetyl-1-(2-((2S,4R)-4-fluoro-2-((3-phenoxyphenyl)carbamoyl)pyrrolidin-1-yl)-2-oxoethyl)-1H-indol-6-yl)oxy)methyl)phosphonic acid]	IC50: 1000 to 10000 nM

Compound	IC50 [1]	other results
CC(=O)c1cn(CC(=O)N2C[C@H](F)C[C@H]2C(=O)NCc2cccc(Cl)c2F)c2ccc(C#Cc3cccc(OC(F)(F)F)c3F)cc12 [Compound 177, (2S,4R)-1-(2-(3-acetyl-5-((2-fluoro-3-(trifluoromethoxy)phenyl)ethynyl)-1H-indol-1-yl)acetyl)-N-(3-chloro-2-fluorobenzyl)-4-fluoropyrrolidine-2-carboxamide]	1000 to 10000 nM	
CC(=O)c1cn(CC(=O)N2C[C@H](F)C[C@H]2C(=O)NCc2cccc(Cl)c2F)c2ccc(NC(=O)OC3CC3)cc12 [Compound 186, cyclopropyl (3-acetyl-1-(2-((2S,4R)-2-((3-chloro-2-fluorobenzyl)carbamoyl)-4-fluoropyrrolidin-1-yl)-2-oxoethyl)-1H-indol-5-yl)carbamate]	< 1000 nM	

— patent US20170226142A1 (Achillion Pharmaceuticals, Inc., priority 2014, published 2017)
